From ChEMBL document CHEMBL1201862, “PubChem BioAssay data set” (2004)
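Exposure lasted 48 hours, with cells grown in 96-well plates and compounds tested at five concentrations. GI50 marks 50% less growth.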 Active and inactive are the calls of the source. No stated cut-off is given here; in the data, active = GI50 up to about 1.1 µM and inactive = higher.

What was measured:
Test in all cases: inhibition of tumour cell growth, NCI panel, 48 h
[1] = test system: LOX IMVI
[2] = test system: HOP-62
[3] = test system: U-251
[4] = test system: SR
[5] = test system: MOLT-4
[6] = test system: HT-29
[7] = test system: SN12C
[8] = test system: SNB-19
[9] = test system: MCF7
[10] = test system: SK-MEL-5
[11] = test system: NCI-H460
[12] = test system: Malme-3M
[13] = test system: UO-31
[14] = test system: SF-295
[15] = test system: OVCAR-4
[16] = test system: HCT-116
[17] = test system: OVCAR-5
[18] = test system: SK-MEL-2
[19] = test system: NCI/ADR-RES
[20] = test system: 786-0

Structure (SMILES) | GI50 [1] | GI50 [2] | GI50 [3] | GI50 [4] | GI50 [5] | GI50 [6] | GI50 [7] | GI50 [8] | GI50 [9] | GI50 [10] | GI50 [11] | GI50 [12] | GI50 [13] | GI50 [14] | GI50 [15] | GI50 [16] | GI50 [17] | GI50 [18] | GI50 [19] | GI50 [20]
O=C(O)CN1CCNCCN(CC(=O)O)CC1 | 17.3 µM (inactive) | > 27.7 µM (inactive) | 28.2 µM (inactive) | 3.84 µM (inactive) | 4.81 µM (inactive) | 2.38 µM (inactive) | > 100 µM (inactive) | > 100 µM (inactive) | 3.73 µM (inactive) | 5.48 µM (inactive) | 7.66 µM (inactive) | 2.35 µM (inactive) | 10.2 µM (inactive) | > 69 µM (inactive) | 38.8 µM (inactive) | 3.36 µM (inactive) | > 22.1 µM (inactive) | 26.4 µM (inactive) | 2.44 µM (inactive) | 5.48 µM (inactive)
Cc1cccc(/N=N/c2ccc(O)c(CN(C)C)c2)c1 | 5.41 µM (inactive) | 11.1 µM (inactive) | 45.9 µM (inactive) | 43.1 µM (inactive) | 20 µM (inactive) | 17.5 µM (inactive) | 62.4 µM (inactive) | 41.9 µM (inactive) | 39.1 µM (inactive) | 14 µM (inactive) | 16.7 µM (inactive) | 10 µM (inactive) | 7.35 µM (inactive) | 28.4 µM (inactive) | 55.3 µM (inactive) | 20.5 µM (inactive) | 33.8 µM (inactive) | 20.7 µM (inactive) | 16.9 µM (inactive) | 18.9 µM (inactive)
N=C(N)NS(=O)(=O)c1ccc(NC(=O)c2ccc3nc4ccccc4c(Nc4ccc(S(=O)(=O)N=C(N)N)cc4)c3c2)cc1 | 61.8 µM (inactive) | > 100 µM (inactive) | > 100 µM (inactive) | > 100 µM (inactive) | > 100 µM (inactive) | > 100 µM (inactive) | > 100 µM (inactive) | > 100 µM (inactive) | > 100 µM (inactive) | > 100 µM (inactive) | > 100 µM (inactive) | > 100 µM (inactive) | > 100 µM (inactive) | > 100 µM (inactive) | > 100 µM (inactive) | > 100 µM (inactive) | > 100 µM (inactive) | > 100 µM (inactive) | > 100 µM (inactive) | > 100 µM (inactive)
CC(NC1=CC(=O)c2cccnc2C1=O)C(O)c1ccccc1 (stereo not given) | 0.942 µM (active) | 1.26 µM (inactive) | 2.78 µM (inactive) | 2.86 µM (inactive) | 4.12 µM (inactive) | 2.86 µM (inactive) | 1.38 µM (inactive) | 2.08 µM (inactive) | 1.35 µM (inactive) | 1.09 µM (active) | 0.733 µM (active) | 1.48 µM (inactive) | 2.15 µM (inactive) | 1.28 µM (inactive) | 2.94 µM (inactive) | 2.22 µM (inactive) | 1.79 µM (inactive) | 1.5 µM (inactive) | 3.63 µM (inactive) | 2.79 µM (inactive)
CN(C)CCCNc1ccc2nnn3c4ccc([N+](=O)[O-])cc4c(=O)c1c23 | 0.641 µM (active) | 0.817 µM (active) | 0.738 µM (active) | 0.617 µM (active) | 0.21 µM (active) | 0.55 µM (active) | 0.695 µM (active) | 2.73 µM (inactive) | 1.74 µM (inactive) | 1.7 µM (inactive) | 0.313 µM (active) | 3.56 µM (inactive) | 1.28 µM (inactive) | 1.42 µM (inactive) | 1.02 µM (active) | 0.404 µM (active) | 1.99 µM (inactive) | 3.12 µM (inactive) | 0.685 µM (active) | 0.624 µM (active)
Cc1cccc(CC(Cc2c(C)cccc2C(=O)O)C(=O)O)c1 (stereo not given) | > 100 µM (inactive) | > 100 µM (inactive) | > 100 µM (inactive) | > 100 µM (inactive) | > 100 µM (inactive) | > 100 µM (inactive) | > 100 µM (inactive) | > 100 µM (inactive) | > 100 µM (inactive) | 4.49 µM (inactive) | > 100 µM (inactive) | > 100 µM (inactive) | > 100 µM (inactive) | > 100 µM (inactive) | > 100 µM (inactive) | > 100 µM (inactive) | > 100 µM (inactive) | 58.7 µM (inactive) | > 100 µM (inactive) | > 100 µM (inactive)
COc1cc(Nc2nc3c(N)cc(C(F)(F)F)cc3nc2-c2ccccc2)cc(OC)c1OC | 72.1 µM (inactive) | 26.3 µM (inactive) | 26.1 µM (inactive) | > 87.5 µM (inactive) | > 100 µM (inactive) | > 92.5 µM (inactive) | 43 µM (inactive) | 25.8 µM (inactive) | 67.3 µM (inactive) | 19.1 µM (inactive) | 37.2 µM (inactive) | 41.1 µM (inactive) | > 100 µM (inactive) | 16.6 µM (inactive) | 15 µM (inactive) | > 74.3 µM (inactive) | > 100 µM (inactive) | 51.4 µM (inactive) | > 53.2 µM (inactive) | 24.3 µM (inactive)
C1CCC(CC2CCC(NC3=NCCO3)CC2)CC1 (stereo not given) | 16.1 µM (inactive) | 20.6 µM (inactive) | 18 µM (inactive) | 24.4 µM (inactive) | 21.6 µM (inactive) | 3.93 µM (inactive) | 19.8 µM (inactive) | 17.3 µM (inactive) | 17.5 µM (inactive) | 19.5 µM (inactive) | 20.2 µM (inactive) | 15.8 µM (inactive) | 19.9 µM (inactive) | 19.7 µM (inactive) | 20.2 µM (inactive) | 15.5 µM (inactive) | 23.6 µM (inactive) | 18.4 µM (inactive) | 19.4 µM (inactive) | 15.2 µM (inactive)
